{"source": "paper PMC7756582", "about": "“Prodrugs of γ‐Alkyl‐Modified Nucleoside Triphosphates: Improved Inhibition of HIV Reverse Transcriptase” (Angewandte Chemie (International Ed. in English), 2020)", "key": {"HIV-2(ROD) [1]": {"tested_on": "HIV-2(ROD)", "assay": "Anti-HIV activity assay, HIV-2-infected wild-type CEM/0 cell cultures", "format": "cell-based", "settings": "Human immunodeficiency virus 2, CCRF-CEM, read-out: EC50 CEM/0 HIV-2", "method": "(§1) γ‐(AB,alkyl)‐d4TTP prodrugs 6 and the γ‐alkyl‐d4TTPs 7 were evaluated for their ability to inhibit the replication of HIV in HIV‐1‐ or HIV‐2‐infected wild‐type CEM/0 as well as mutant thymidine‐kinase‐deficient CEM cell cultures (CEM/TK^−). For comparison, two TriPPPro derivatives 5 were also included in this assay.\n(§2) Anti-HIV activity assay: Inhibition of HIV-1(IIIB)- and HIV-2(ROD)-induced cytopathicity in wild-type CEM/0 and thymidine kinase-deficient CEM/TK- cell cultures was measured in microtiter 96-well plates containing ~3·105 CEM cells/mL infected with 100 CCID50 of HIV per milliliter and containing appropriate dilutions of the test compounds. After 4−5 days of incubation at 37 °C in a CO2-controlled humidified atmosphere, CEM giant (syncytium) cell formation was examined microscopically. […]\n(§3) was defined as the compound concentration required to inhibit HIV-induced giant cell formation by 50%. […]\n(§4) The result was visualized by fluorescence imaging. […]\nas §4"}, "[2]": {"assay": "Chemical hydrolysis in aqueous phosphate buffer (PBS, pH 7.3)", "format": "physicochemical", "settings": "aqueous 25 mM phosphate buffer, pH 7.3, 37 °C; removal of AB group; n.h. = no hydrolysis observed through cleavage of AB-mask", "method": "γ‐(AB,alkyl)‐NTP prodrugs 6 and γ‐alkyl‐NTPs 7 were incubated in aqueous phosphate buffer (PBS, 25 mM, pH 7.3), or were exposed to pig liver esterase (PLE) in phosphate buffer (PBS) and to human CD4^+ T‐lymphocyte cell extracts to study their stability and the product distribution. The hydrolysis mixtures were analyzed by means of analytical rp‐18‐HPLC. The calculated half‐lives of prodrugs 6 (Table 1, t 1/2) reflect the removal of the bioreversible AB group to yield γ‐alkyl‐NTPs 7. Possible hydrolysis pathways and products are summarized in Scheme 4.\nAs hydrolysis products, a predominant formation of γ‐alkyl‐d4TTPs 7 and a very small amount of d4TDP […] was detected (approximately 3 %). After consumption of the starting material, no further increase of d4TDP concentration was observed. This supports the hypothesis that only the double‐γ‐esterified d4TTP prodrugs 6 were prone to a bond breakage between the γ‐ and β‐phosphate. […] In contrast to previous studies with TriPPPro‐NTPs 5 containing a second cleavable mask (first generation NTP prodrugs),[ ^23 , ^24 , ^25 ] no d4TTP was detected in these studies using 6 or 7. A side reaction occurred during the studies using compounds 7 that led to the formation of thymine by the cleavage of the glycosidic bond as reported before.[ ^19 , ^22 ]\n(§5) ProLab 300 from Schott Co.. Thermomixer: Eppendorf Thermomixer 5436 and CellMedia Thermoschüttler basic were used. […]\nChemical hydrolysis of prodrugs of γ-(AB,alkyl) d4TTP 6 as well as the γ-alkyl-NTPs 7,15:\nStock solutions (50mM in DMSO-d6) of compounds 6,7 were prepared. After dilution of 11 µL stock solution with 100 µL milliQ water and 189 µL DMSO-d6 to 1.9mM hydrolysis solutions the reaction was started by addition of 300 µL phosphate buffer saline (PBS, 50mM, pH 7.3). The solution was incubated at 37 C in a thermomixer. An initial aliquot (25 µL) was taken directly and analyzed by analytical HPLC at 265-266 nm. Further aliquots were taken for monitoring the kinetic hydrolysis. The exponential decay curves (pseudo-first order) based on absolute integral values were calculated with commercially available software (OriginPro 9.0G) and yielded the half-lives t1/2 of the prodrugs via one determination. […]\nThe calculation of t1/2 was performed analogously to that for the chemical hydrolysis studies.\n(§6) Preparation of cell extracts: Human CD4+ T-lymphocyte CEM cells were grown in RPMI-1640-based cell culture medium to a final density of ~3·10^6 cells/ml. Then, cells were centrifuged for 10 min at 1,250 rpm at 4 °C, washed twice with cold PBS, and the pellet was re-suspended at 10^8 cells/ml and sonicated (Hielscher Ultrasound Techn., 100% amplitude, 3·times for 10 sec) to destroy cell integrity. The resulting cell suspension was then centrifuged at 10,000 rpm to remove cell debris, and the supernatant divided in aliquots before being frozen at -80 C and used.\n(1 picture or pasted object on this page, not shown here)"}, "HIV-2(ROD) [3]": {"tested_on": "HIV-2(ROD)", "assay": "Anti-HIV activity assay, HIV-2-infected thymidine-kinase-deficient CEM/TK- cell cultures", "format": "cell-based", "settings": "Human immunodeficiency virus 2, CEM-TK(-), read-out: EC50 CEM/TK− HIV-2, thymidine-kinase-deficient CEM/TK− cells, HIV-2; mean±SD, n=2-3", "method": "as §1, §2, §3, §4, §4"}, "[4]": {"target": "T1, HIV reverse transcriptase (RT) (Human immunodeficiency virus type 1 group M subtype B, UniProt P03366)", "T1 construct": "reverse transcriptase (RT; an HIV‐encoded RNA‐dependent DNA polymerase); purchased Roboklon", "assay": "Primer extension assay with HIV-RT", "format": "biochemical, HIV-1", "settings": "incubation 10, 20, 40 and 60 min; conversion of primer to n+1 product", "method": "Primer-extension reactions:\nHIV-RT and human DNA polymerase β and γ were obtained from Roboklon, human DNA polymerase α was obtained from Chimerx.\nThe primers and templates were purchased from Life Technologies and Microsynth. The fluorescent labeled primer was purchased\nfrom Metabion and Microsynth. The gels were prepared with the size of 450mm×200mm×0.4mm according to the electrophoresis\n5’-FITC and 5’-Cy3 labeled Primer-sequence:\nThe primer extension assays were performed under the following conditions:\nFITC and Cy3 labeled primer extension assay:\n1) Hybridization: After 5 min incubation at 95 °C in 20 mM Tris-HCl (pH 7.6) and 50 mM NaCl, the hybridization/annealing of the\nprimer to the template strand was achieved by a cooling phase from 95 °C to […] lasted more than 2 hours. […]\nThe assays were separated using a denaturating PAGE (15%). The result was visualized by fluorescence imaging. […]\nas §4, §4"}, "HIV-1(IIIB)": {"tested_on": "HIV-1(IIIB)", "assay": "Anti-HIV activity assay, HIV-1-infected wild-type CEM/0 cell cultures", "format": "cell-based", "settings": "Human immunodeficiency virus 1, IIIB, CCRF-CEM, read-out: EC50 CEM/0 HIV-1", "method": "as §1, §2, §3, §4, §4"}, "[5]": {"assay": "Enzyme-catalyzed hydrolysis in human CD4+ T-lymphocyte CEM cell extracts", "format": "in vitro ADME", "settings": "CEM/0 cell extracts (CD4+ T-lymphocytes); human CD4+ T-lymphocyte CEM cell extracts, 37 °C; read-out: CEM/0 cell extracts t 1/2 (converted)", "method": "The stability of prodrugs 6 and the γ‐alkyl‐NTPs 7 was further investigated in human CD4 ^+ T‐lymphocyte CEM cell extracts. […] Thus, an enzymatic cleavage reaction took place. Half‐lives as low as 0.4 h (6 az) to 5.2 h (6 dz) were determined. […] This is in accordance to our previous results for the DiPPro‐[ ^17 , ^18 ] or the TriPPPro‐compounds 5.[ ^22 , ^23 ] In all cases we observed the predominant formation of γ‐alkyl‐d4TTPs 7 and d4TDP 2 d in very low concentration (Figure 2 B) but no NTP formation was detected, in contrast to the studies using the previously described TriPPPro compounds 5.[ ^23 , ^24 ] However, the difference to the compounds bearing long lipophilic acyl groups was not very pronounced (2‐ to 3‐fold). In the case of γ‐(AB‐C4,alkyl‐C18)‐d4TTP 6 cz, γ‐C18‐d4TTP 7 z was detected as the main product. After 8 h incubation, the ratio of γ‐C18‐d4TTP 7 z and d4TDP 2 d was 5:1. This was in sharp contrast to the studies performed with TriPPPro compounds 5.[ ^23 , ^24 ] There, it was almost impossible to detect significant concentrations of d4TTP due to its fast dephosphorylation to form first d4TDP and finally d4TMP 2 m. […] The formation of thymine or d4TTP 2 t from γ‐C18‐d4TTP 7 z was not detected (Supporting Information, Figure SI2).\nas §5\nEnzyme-catalyzed hydrolysis of γ-(AB,alkyl)-d4TTPs 6, γ-alkyl-d4TTPs 7,15 and TriPPPros 5 in CEM cell extracts:\n18 µL of the appropriate 50 mM DMSO-d6 stock solution was diluted to 6.0 mM hydrolysis solution by addition of 132.0 µL DMSO-d6.\n7-10 different samples including 10 µL water and 10 µL hydrolysis solution were prepared in 2 mL Eppendorf® vials. The reaction was started by addition of 50 µL human CEM cell extract and the mixture was incubated at 37 °C for different time periods. The reactions were stopped by addition of 150 μL MeOH. The solution was kept on ice for 5 min followed by centrifugation for 5 min (13000 rpm).\nThe supernatants were filtered (Chromafil® RC-20/15 MS, 0.2 μm) and stored in liquid nitrogen. When testing, the samples were defrosted and injection volume with 80 μL was used for HPLC analysis. The calculation of t1/2 was performed analogously to that for the chemical hydrolysis studies.\nas §6"}, "[6]": {"assay": "Cytotoxicity: inhibition of CD4+ T-cell (CEM) proliferation", "format": "cell-based", "settings": "human, CEM/0 cells (CD4+ T-cells), 50 % cytostatic concentration, mean±SD, n=2-3"}}}
{"smiles": "CCCCCCCCCCCOP(=O)(O)OP(=O)(O)OP(=O)(O)OCC1C=CC(n2cc(C)c(=O)[nH]c2=O)O1", "note": "(stereo not shown) [7 x, γ‐C11‐d4TTP]", "values": [{"measurement": "EC50", "setting": "HIV-2(ROD) [1]", "result": "260 ± 83", "unit": "nM"}, {"measurement": "PBS pH 7.3 t 1/2", "setting": "[2]", "result": "n.h.^[c]"}, {"measurement": "EC50", "setting": "HIV-2(ROD) [3]", "result": "16 ± 5", "unit": "µM"}, {"measurement": "comparison of substrate properties for HIV-RT", "setting": "[4]", "result": "better substrates"}, {"measurement": "EC50", "setting": "HIV-1(IIIB)", "result": "890 ± 280", "unit": "nM"}, {"measurement": "half-life at 0.86 mM", "setting": "[5]", "result": "> 1800", "unit": "min"}, {"measurement": "CC50", "setting": "[6]", "result": "78 ± 10", "unit": "µM"}]}
